Experimental data: ChEMBL document CHEMBL1123460, “Synthesis and biochemical properties of 8-amino-6-fluoro-9-beta-D-ribofuranosyl-9H-purine” (J Med Chem, 1986)

Tests used:
[1] = tested on: HEp-2; test: Compound was evaluated for the cytotoxicity against H.Ep.-2 cells.; type: functional, cell-based; conditions: Homo sapiens
[2] = tested on: L1210; test: Compound was evaluated for the cytotoxicity against L1210 cells.; type: functional, cell-based; conditions: Mus musculus
[3] = Compound was evaluated for the apparent Km value.; type: ADME
[4] = tested on: L1210; test: Compound was evaluated for the cytotoxicity against L1210 cells in presence of coformycin; type: functional, cell-based; conditions: Mus musculus
[5] = tested on: L1210; test: Compound was evaluated for the cytotoxicity against L1210 cells in absence of coformycin; type: functional, cell-based; conditions: Mus musculus

Compound	IC50 [1]	IC50 [2]	Km [3]	IC50 [4]	IC50 [5]
Nc1nc2c(F)ncnc2n1C1O[C@H](CO)[C@@H](O)[C@H]1O (stereo partly specified)	1800 nM	1900 nM	1000 µM	–	–
Nc1ncnc2c1ncn2[C@@H]1O[C@H](CO)[C@@H](O)[C@H]1O [ADENOSINE]	–	–	29 µM	–	–
OC[C@H]1O[C@@H](n2cnc3c2N=CNC[C@H]3O)C[C@@H]1O [PENTOSTATIN]	–	–	–	250 nM	1900 nM
